From US9416143B2, “Griseofulvin derivatives” (PIERRE FABRE MEDICAMENT, priority 2012, dated 2016)
Read-outs that look alike come from different tables or passages of the source.

Assays:
Format in all cases: cell-based
[1] = system: HCC-1937 line (primary ductam breast carcinoma cell line); assay: Cell proliferation (ATPLite) on HCC-1937 line; details: read 48 hours after treatment
Experimental: (§1) The lines N1E115 (ATCC, CRL2263), MDA-MB-231 (ATCC, HTB26) and HSC-1 (Health Science Research Resources Bank, JCRB1015) were cultured in DMEM medium (Dulbecco's Modified Eagle Medium) supplemented with 2 mM of L-Glutamine (Sigma, G7513) and 10% foetal calf serum (Hyclone, SH30109.03) or 20% for the HSC-1 cells. The HCC-1937 (ATCC, CRL2336) and A549 (ATCC, CCL185) lines were cultured in RPMI medium (Roswell Park Memorial Institute Medium) supplemented with 10% foetal calf serum and 2 mM of L-Glutamine. Finally, the SCC114 (DSMZ, ACC662) line was cultured in MEM medium (Minimum Essential Medium Eagle) supplemented with 10% foetal calf serum and 2 mM of L-Glutamine. Initially, in 96-well plates (Perkin Elmer, 6005668), the cells were seeded in their respective culture media with 750 cells per well for N1E115; 1000 cells per well for SCC114 and A549; 2000 cells per well for HCC-1937 and HSC-1; 2500 cells per well for MDA-MB-231. Cascade dilution of each compound was performed in dimethylsulfoxide (DMSO) (Sigma, D8418) from 10 mM stock solutions in 100% DMSO. Each of the dilutions was added to the cells 24 hours after seeding. Under these conditions the final solvent concentration was 0.1% DMSO. Reading of cell proliferation was conducted 72 hours after addition of products with the ATPLite kit (Perkin Elmer, 6016947) and following the manufacturer's directions except in the case of the HCC-1937 line for which this reading was carried out 48 hours after treatment. Analysis of proliferation results was performed by comparing with conditions in which solely the vehicle was added to the cells. The dose-response curves obtained were analysed using Prism 4.03 software (GraphPad Software Inc.) to determine the concentration of each compound allowing 50% inhibition of cell proliferation (IC50).
(§2) As examples, the cytotoxic properties of some compounds of the invention evaluated on the lines A549 (lung cancer cell line), MDA-MB-231 line (mammary adenocarcinoma cell line), N1E115 (mouse brain neuroblastoma cell line), HCC-1937 line (primary ductam breast carcinoma cell line), HSC-1 (cutaneous squamous carcinoma cell line) and SCC114 line (oral squamous carcinoma cell line) are reported in Table 1, as compared with griseofulvin used as control product. The concentration values are expressed in micromolar units (μM).

[2] = system: A549 (lung cancer cell line); assay: Cell proliferation (ATPLite) on A549 line; details: read 72 hours after addition
Experimental: as §1, §2

[3] = system: SCC114 line (oral squamous carcinoma cell line); assay: Cell proliferation (ATPLite) on SCC114 line; details: read 72 hours after addition
Experimental: as §1, §2

[4] = system: MDA-MB-231 line (mammary adenocarcinoma cell line); assay: Cell proliferation (ATPLite) on MDA-MB-231 line; details: read 72 hours after addition
Experimental: as §1, §2

[5] = system: N1E115 (mouse brain neuroblastoma cell line); assay: Cell proliferation (ATPLite) on N1E115 line; details: read 72 hours after addition
Experimental: as §1, §2

[6] = system: HSC-1 (cutaneous squamous carcinoma cell line); assay: Cell proliferation (ATPLite) on HSC-1 line; details: 50% inhibition of cell proliferation, read 72 hours after addition
Experimental: as §1, §2

[7] = Homo sapiens, HCC1937, 50% inhibition of cell proliferation
[8] = Homo sapiens, A549, 50% inhibition of cell proliferation
[9] = SCC114, 50% inhibition of cell proliferation
[10] = Homo sapiens, MDA-MB-231, 50% inhibition of cell proliferation
[11] = Mus musculus, N1E-115, 50% inhibition of cell proliferation
[12] = 50% inhibition of cell proliferation, read-out: IC50 (μM) HCC1937
[13] = 50% inhibition of cell proliferation
[14] = 50% inhibition of cell proliferation, read-out: IC50 (μM) N1E-115

| SMILES | IC50 [1, 7] [µM] | IC50 [2, 8] [µM] | IC50 [3, 9] [µM] | IC50 [4, 10] [µM] | IC50 [5, 11] [µM] | IC50 [6] [µM] | IC50 [1, 12] [µM] | IC50 [2, 13] [µM] | IC50 [3, 13] [µM] | IC50 [4, 13] [µM] | IC50 [5, 14] [µM] |
| --- | --- | --- | --- | --- | --- | --- | --- | --- | --- | --- | --- |
| COC(=O)c1cc(-c2ccccc2)c2c(n1)C[C@@H](C)[C@]1(Oc3c(Cl)c(OC)cc(OC)c3C1=O)C2=O [compound 152, (2S,7′R)-methyl 7-chloro-4,6-dimethoxy-7′-methyl-3,5′-dioxo-4′-phenyl-7′,8′-dihydro-3H,5′H-spiro[benzofuran-2,6′-quinoline]-2′-carboxylate] | > 10 | 0.48 | 0.71 | 1.6 | 0.62 | 10 |  |  |  |  |  |
| COC(=O)c1cc(-c2ccccc2)c2c(n1)C[C@@H](C)[C@]1(Oc3c(Cl)c(OC)cc(OC)c3C1=O)[C@H]2O [compound 252, (2S,5′S,7′R)-methyl 7-chloro-5′-hydroxy-4,6-dimethoxy-7′-methyl-3-oxo-4′-phenyl-7′,8′-dihydro-3H,5′H-spiro[benzofuran-2,6′-quinoline]-2′-carboxylate] | > 10 | 0.25 | 0.32 | 0.38 | 0.2 | 0.52 |  |  |  |  |  |
| COc1cc(OC)c2c(c1Cl)O[C@]1(C2=O)C2=C(C[C@@H](c3ccccc3)O2)/C(=N/O)C[C@H]1C [compound 217, (2′S,6R,E)-7′-chloro-4-(hydroxyimino)-4′,6′-dimethoxy-6-methyl-2-phenyl-3,4,5,6-tetrahydro-2H,3′H-2,7′-spirobi[benzofuran]-3′-one] |  |  |  |  |  | 1.3 | > 10 | 0.36 | 0.33 | 0.63 | 0.73 |
| COc1cc(OC)c2c(c1Cl)O[C@]1(C2=O)C(O)c2ccc(C)nc2C[C@H]1C (stereo partly drawn) [compound 249, (2S,7′R)-7-chloro-5′-hydroxy-4,6-dimethoxy-2′,7′-dimethyl-7′,8′-dihydro-3H,5′H-spiro[benzofuran-2,6′-quinolin]-3-one] | > 10 | 0.55 | 0.42 | 0.34 | 0.26 | 0.88 |  |  |  |  |  |
| COc1cc(OC)c2c(c1Cl)O[C@@]1(C=C([S+]([O-])c3ccccc3)C(=O)C[C@H]1C)C2=O (stereo partly drawn) [compound 95] |  |  |  |  |  | 0.32 | 0.43 | 0.25 | 0.25 | 0.54 | 1 |
| COc1cc(OC)c2c(c1Cl)O[C@]1(C2=O)C2=C(C[C@H](c3ccccc3)O2)C(=O)C[C@H]1C [compound 3, (2R,2′S,6R)-7′-chloro-4′,6′-dimethoxy-6-methyl-2-phenyl-5,6-dihydro-2H,3′H-2,7′-spirobi[benzofuran]-3′,4(3H)-dione] |  |  |  |  |  | 6 | > 10 | 0.25 | 0.52 | 0.45 | 0.21 |
| COC(=O)C1=C[C@H](c2ccccc2)C2=C(C[C@@H](C)[C@]3(Oc4c(Cl)c(OC)cc(OC)c4C3=O)C2=O)N1 [compound 149, (2S,4′R,7′R)-methyl 7-chloro-4,6-dimethoxy-7′-methyl-3,5′-dioxo-4′-phenyl-4′,5′,7′,8′-tetrahydro-1′H,3H-spiro[benzofuran-2,6′-quinoline]-2′-carboxylate] | > 10 | 0.24 | 0.23 | 0.34 | 0.21 | 0.72 |  |  |  |  |  |
| COc1cc(OC)c2c(c1Cl)O[C@]1(C2=O)C(S(=O)(=O)Cc2ccccc2)=CC(=O)C[C@H]1C [compound 145, (1′R,6′R)-2′-(benzylsulfonyl)-7-chloro-4,6-dimethoxy-6′-methyl-3H-spiro[benzofuran-2,1′-cyclohex[2]ene]-3,4′-dione] |  |  |  |  |  | 1.4 | 1.4 | 1.5 | 0.385 | 2 | 3 |
| CCc1ccc2c(n1)C[C@@H](C)[C@]1(Oc3c(Cl)c(OC)cc(OC)c3C1=O)C2O (stereo partly drawn) [compound 250, (2 S,7′R)-7-chloro-2′-ethyl-5′-hydroxy-4,6-dimethoxy-7′-methyl-7′,8′-dihydro-3H,5′H-spiro[benzofuran-2,6′-quinolin]-3-one] | > 10 | 1.4 | 0.54 | 0.35 | 1.4 | 1.9 |  |  |  |  |  |
